Assay results published in patent US11377442B2, “Small molecule agonists and antagonists of NR2F6 activity” (ZANDER THERAPEUTICS, INC., priority 2016, dated 2022).

How the values were obtained:
Format in all cases: cell-based
[1] = target: T1, NR2F6 (Homo sapiens, UniProt P10588); assay: NR2F6 agonist screening, Firefly signal cmpd/DMSO; settings: clone F4
T1 construct: expressed in transfected cells; also transient transfection
T1 sequence (P10588 1-404): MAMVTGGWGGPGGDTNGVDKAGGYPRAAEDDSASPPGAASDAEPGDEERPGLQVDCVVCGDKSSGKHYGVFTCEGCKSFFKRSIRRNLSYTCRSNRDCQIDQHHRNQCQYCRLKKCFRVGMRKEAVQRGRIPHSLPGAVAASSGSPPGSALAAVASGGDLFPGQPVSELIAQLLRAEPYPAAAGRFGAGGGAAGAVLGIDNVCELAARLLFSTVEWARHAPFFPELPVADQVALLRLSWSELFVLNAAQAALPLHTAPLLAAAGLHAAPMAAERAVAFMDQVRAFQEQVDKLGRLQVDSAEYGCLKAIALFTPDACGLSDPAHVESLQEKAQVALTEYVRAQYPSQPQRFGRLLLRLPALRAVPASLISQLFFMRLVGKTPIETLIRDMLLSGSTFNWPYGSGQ

[2] = target: T2, ERα (Homo sapiens, UniProt P03372); assay: Counterscreening, Firefly signal with ERα transient transfection (Firefly_ERa); settings: 10 uM
T2 construct: expressed in transfected cells
T2 sequence (P03372 1-595): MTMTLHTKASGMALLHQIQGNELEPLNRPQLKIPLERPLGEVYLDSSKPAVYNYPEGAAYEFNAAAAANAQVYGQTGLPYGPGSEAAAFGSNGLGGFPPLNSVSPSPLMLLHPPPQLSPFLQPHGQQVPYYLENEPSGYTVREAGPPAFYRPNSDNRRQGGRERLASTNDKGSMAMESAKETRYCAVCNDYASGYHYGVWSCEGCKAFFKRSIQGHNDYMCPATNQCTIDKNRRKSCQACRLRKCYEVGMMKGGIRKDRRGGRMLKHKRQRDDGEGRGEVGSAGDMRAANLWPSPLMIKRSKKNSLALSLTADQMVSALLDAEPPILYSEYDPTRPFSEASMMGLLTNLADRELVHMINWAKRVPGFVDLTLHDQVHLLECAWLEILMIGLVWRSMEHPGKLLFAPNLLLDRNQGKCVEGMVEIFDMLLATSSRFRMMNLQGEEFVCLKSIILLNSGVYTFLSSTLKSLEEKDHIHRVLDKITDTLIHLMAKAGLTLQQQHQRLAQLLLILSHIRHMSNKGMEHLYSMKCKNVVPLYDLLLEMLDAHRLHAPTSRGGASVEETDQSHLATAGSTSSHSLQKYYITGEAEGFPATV
Procedure: The methodology for screening candidate compounds as NR2F6 agonists was as follows: For primary screening, hit criteria was ACT %>DMSO control+5*SD (DSO control) at 10 μM, or any compound with S/B>2. For rescreening, hit criteria was ACT %>DMSO control+3*SD (DSO control) in each replicate at 10 μM. For counterscreening, hit criteria was mean ACT<DMSO control+3*SD (DMSO control) with ERα transient transfection in duplicate at 10 μM.

[3] = tested on: Renilla; assay: Renilla signal in NR2F6 agonist screening, cmpd/DMSO; settings: clone F4; for fold induction at 2 µM / fold induction at 10 µM / fold induction at 40 µM: Renilla, read-out: Renilla F4, cmpd/DMSO (mean)
[4] = tested on: Renilla_ERa; assay: Renilla signal in ERα counterscreen (Renilla_ERa); settings: for fold induction at 2 µM / fold induction at 10 µM / fold induction at 40 µM: read-out: Renilla ERalpha transient, cmpd/DMSO (mean)
[5] = target: T2, ERα; assay: Counterscreening, Firefly signal with ERα transient transfection (Firefly_ERa)

SMILES | Firefly F4, cmpd/DMSO (mean) ([1]; 2 uM) | Firefly F4, cmpd/DMSO (mean) ([1]; 10 uM) | Firefly F4, cmpd/DMSO (mean) ([1]; 40 uM) | Firefly ERalpha transient, cmpd/DMSO (mean) [2] | Renilla F4, cmpd/DMSO (mean) ([3]; 2 uM) | Renilla F4, cmpd/DMSO (mean) ([3]; 10 uM) | Renilla F4, cmpd/DMSO (mean) ([3]; 40 uM) | Renilla ERalpha transient, cmpd/DMSO (mean) ([4]; 2 uM) | Renilla ERalpha transient, cmpd/DMSO (mean) ([4]; 10 uM) | Renilla ERalpha transient, cmpd/DMSO (mean) ([4]; 40 uM) | Firefly ERalpha transient, cmpd/DMSO (mean) ([5]; 2 uM) | Firefly ERalpha transient, cmpd/DMSO (mean) ([5]; 40 uM) | fold induction at 2 µM ([3]; 2 uM) | fold induction at 10 µM ([3]; 10 uM) | fold induction at 40 µM ([3]; 40 uM) | fold induction at 2 µM ([4]; 2 uM) | fold induction at 10 µM ([4]; 10 uM) | fold induction at 40 µM ([4]; 40 uM)
O=c1cccc2n1CCN(c1nc(NCC3CCCO3)nc(N3CCOCC3)n1)C2 (stereo not drawn) [Compound 33] | 0.8 | 1.0 | 1.1 | 1.3 | 1.2 | 1.3 | 1.4 | 1.2 | 1.1 | 1.3 | 1.3 | 1.4 | – | – | – | – | – | –
CC(C)Nc1nc(N2CCOCC2)nc(N2CCn3c(cccc3=O)C2)n1 [Compound 34] | 0.9 | 0.8 | 0.9 | 1.2 | 0.9 | 1.1 | 0.9 | 1.0 | 1.1 | 1.1 | 1.1 | 1.2 | – | – | – | – | – | –
CC(C)Nc1nc(N2CCCC2)nc(N2CCn3c(cccc3=O)C2)n1 [Compound 35] | 1.1 | 1.0 | 0.8 | 0.9 | 1.1 | 0.9 | 0.9 | 1.0 | 1.0 | 1.1 | 1.0 | 1.3 | – | – | – | – | – | –
CC1CCN(c2nc(N3CCC(C)CC3)nc(N3CCn4c(cccc4=O)C3)n2)CC1 [Compound 36] | 1.3 | 0.6 | 0.9 | 0.8 | 1.2 | 0.8 | 0.5 | 1.2 | 1.1 | 0.3 | 1.1 | 0.4 | – | – | – | – | – | –
CCCNc1nc(N2CCOCC2)nc(N2CC3CC(C2)c2cccc(=O)n2C3)n1 (stereo not drawn) [Compound 37] | 1.3 | 1.1 | 1.3 | 1.4 | – | – | – | – | – | – | 1.1 | 1.2 | 0.9 | 1.2 | 1.3 | 1.1 | 1.1 | 1.1
COc1nc(NCCC2=CCCCC2)nc(N2CC3CC(C2)c2cccc(=O)n2C3)n1 (stereo not drawn) [Compound 38] | 1.2 | 0.8 | 0.7 | 0.9 | – | – | – | – | – | – | 0.8 | 0.5 | 1.1 | 1.1 | 1.3 | 1.2 | 1.1 | 1.1
O=c1cccc2n1CC1CC2CN(c2nc(NCCC3=CCCCC3)nc(N3CCOCC3)n2)C1 (stereo not drawn) [Compound 39] | 1.1 | 0.9 | 0.9 | 0.6 | – | – | – | – | – | – | 0.9 | 0.9 | 1.2 | 1.4 | 1 | 1.1 | 1.2 | 1.2
CCCCCCNc1nc(OCC)nc(N2CCn3c(cccc3=O)C2)n1 [Compound 40] | 0.9 | 1.0 | 0.8 | 1.0 | 1.1 | 1.3 | 1.0 | 1.2 | 1.2 | 1.1 | 1.0 | 0.7 | – | – | – | – | – | –
CCCCCCNc1nc(OC)nc(N2CCn3c(cccc3=O)C2)n1 [Compound 41] | 0.8 | 0.9 | 0.9 | 1.5 | 1.1 | 1.1 | 1.1 | 1.2 | 1.2 | 1.1 | 1.5 | 1.4 | – | – | – | – | – | –
O=c1cccc2n1CCN(c1nc(NCC3CCCO3)nc(N3CCCC3)n1)C2 (stereo not drawn) [Compound 42] | 1.6 | 0.8 | 0.9 | 1.0 | 0.7 | 0.8 | 1.1 | 0.9 | 1.0 | 1.0 | 2.3 | 1.0 | – | – | – | – | – | –
